This is an account of results in patent US12448383B2, “Compounds and methods for treatment of viral infections” (priority 2022, dated 2025).

Where two headings read alike, the source gives them in different places.

Data set [1] has as its system Respiratory syncytial virus recombinant with luciferase (RSV-Luc5) in HEp-2 cells. The data set can be described thus: microbe, parasite or virus in culture. Format: cell-based. As to conditions: human respiratory syncytial virus.
The nature of data set [2]: GI S9 stability - no PMSF. Format: in vitro ADME. As to conditions: pH 7.4; human intestinal S9, PMSF-free; read-out: GIS9-HUMAN-NoPMSF T1/2. A digest of the protocol: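 Stability was assessed by Q-Exactive LC-MS peak area ratios against internal standard, tracking loss of parent and appearance of nucleoside metabolite Reference Compound A. Incubations used 2 μM compound in 1 mg/mL intestinal S9 without PMSF (PBS, pH 7.4), with six samples taken over 120 min.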

A further data set can be described thus: GI S9 stability. The class given is in vitro ADME. Conditions: human, s9, pH 7.4. The protocol: Example G: GI S9 Stability
Duplicate aliquots of test compound or positive control substrate (GS-7340) were added to S9 stock diluted with 100 mM phosphate buffered saline, pH 7.4, to obtain a protein concentration of 1.0 mg/mL. The S9 metabolic reactions were initiated by the addition of the substrates to the S9 reaction mixture to a final concentration of 2 μM. At 0, 10, 20, 30, 60 and 120 min, […] aliquots of the reaction mixture were transferred to plates containing […] of IS/Q solution. After quenching, the plates were centrifuged at 3000 g for 30 minutes, and 150 μL aliquots of each supernatant were diluted with 150 μL water. Aliquots ([…]) of the diluted supernatant were analyzed on a Thermo Q-Exactive mass spectrometer as described below. GI S9 Stability—No phenylmethylsulfonyl fluoride (PMSF): Similar to the procedure described above, test compounds were incubated at 2 μM with 1 mg/mL PMSF-free Intestinal S9 fractions. Samples are removed at 6 time points over the course of a 120 min experiment and the parent compound disappreance and reference compound A formation is determined by mass spectrometry.
Example K: Liquid Chromatography/Mass Spectroscopy Methods for S9 and Plasma Stability
Quantification of test compounds, Reference Compound A (S9 stability assay nucleoside metabolite), and controls was performed by analyte/internal standard peak area ratio (PAR) values measured on a Thermo Q-Exactive mass spectrometer coupled to a Dionex UltiMate 3000 HPLC with a Leap Technologies HTC PAL autosampler. The column used for analysis of test compounds and Reference Compound A was a Waters Acquity BEH C18 ([…] particle size, 2.1′50 mm). The column used for control (GS-7340) was a Thermo Hypersil GOLD ([…] particle size, 2.1′50 mm). Mobile phase A consisted of 0.1% (v/v) formic acid in water. Mobile phase B consisted of 0.1% (v/v) formic acid in acetonitrile. Elution of analytes was achieved by a series of linear gradients of acetonitrile in water containing 0.1°(v/v) formic acid. The mass spectrometer was calibrated on a weekly basis and mass tolerance of 5 ppm was used.

The mark [3] stands for this setting: HEp-2, 72 h, read-out: RSV Hep2 EC50.

`CC12CCC(C1)C(C)(C)C2OC(=O)OC[C@H]1O[C@@](C#N)(c2ccc3c(N)ncnn23)[C@H](O)[C@@H]1O` (mixture of isomers) [Compound 48, ((2R,3S,4R,5R)-5-(4-aminopyrrolo[2,1-f][1,2,4]triazin-7-yl)-5-cyano-3,4-dihydroxytetrahydrofuran-2-yl)methyl (1,3,3-trimethylbicyclo[2.2.1]heptan-2-yl) carbonate]: the EC50 (commonly the midpoint of the concentration-response curve) in data set [1] (setting [3]) came to 2.35 µM. In addition, the half-life at 2 µM in data set [2] was found to be 10.1 min.
On to `CC(C)OC(=O)OC[C@H]1O[C@@](C#N)(c2ccc3c(N)ncnn23)[C@H](O)[C@@H]1O` [Compound 4, [(2R,3S,4R,5R)-5-(4-aminopyrrolo[2,1-f][1,2,4]triazin-7-yl)-5-cyano-3,4-dihydroay-tetrahydrofuran-2-yl]methyl isopropyl carbonate], for which the half-maximal effective concentration (EC50) in data set [1] (setting [3]) was found to be 0.606 µM. The half-life at 2 µM in the data set “GI S9 stability” turned out to be 253 min; in data set [2], 0.903 min.
The corresponding values for `CCOC(=O)OC[C@H]1O[C@@](C#N)(c2ccc3c(N)ncnn23)[C@H](O)[C@@H]1O` [Compound 6, ((2R,3S,4R,5R)-5-(4-aminopyrrolo[2,1-f][1,2,4]triazin-7-yl)-5-cyano-3,4-dihydroxytetrahydrofuran-2-yl)methyl ethyl carbonate] are 1.11 µM, 713 min and 4.08 min.
Turning to `CC(C)(C)OC(=O)OC[C@H]1O[C@@](C#N)(c2ccc3c(N)ncnn23)[C@H](O)[C@@H]1O` [Compound 46, ((2R,3S,4R,5R)-5-(4-aminopyrrolo[2,1-f][1,2,4]triazin-7-yl)-5-cyano-3,4-dihydroxytetrahydrofuran-2-yl)methyl tert-butyl carbonate], the half-maximal effective concentration (EC50) in data set [1] (setting [3]) was found to be 2.32 µM. Also, the values for the half-life at 2 µM (in “GI S9 stability”; in data set [2]) were 439 min and 145 min, respectively.
As to `CC1(OC(=O)OC[C@H]2O[C@@](C#N)(c3ccc4c(N)ncnn34)[C@H](O)[C@@H]2O)CCCCC1` [Compound 47, ((2R,3S,4R,5R)-5-(4-aminopyrrolo[2,1-f][1,2,4]triazin-7-yl)-5-cyano-3,4-dihydroxytetrahydrofuran-2-yl)methyl (1-methylcyclohexyl) carbonate], the concentration giving a half-maximal response (EC50) in data set [1] (setting [3]) came to 2.33 µM. For the same compound, the half-life at 2 µM in data set [2] was determined as 151 min.
The like results for `CC(C)(OC(=O)OC[C@H]1O[C@@](C#N)(c2ccc3c(N)ncnn23)[C@H](O)[C@@H]1O)c1ccncc1` [Compound 49, ((2R,3S,4R,5R)-5-(4-aminopyrrolo[2,1-f][1,2,4]triazin-7-yl)-5-cyano-3,4-dihydroxytetrahydrofuran-2-yl)methyl (2-(pyridin-4-yl)propan-2-yl) carbonate] were, in that order, above 50 µM and 522 min.
The corresponding values for `CC1(C)[C@@H]2CC[C@@]1(C)[C@@H](OC(=O)OC[C@H]1O[C@@](C#N)(c3ccc4c(N)ncnn34)[C@H](O)[C@@H]1O)C2` [Compound 51, ((2R,3S,4R,5R)-5-(4-aminopyrrolo[2,1-f][1,2,4]triazin-7-yl)-5-cyano-3,4-dihydroxytetrahydrofuran-2-yl)methyl ((1R,2S,4R)-1,7,7-trimethylbicyclo[2.2.1]heptan-2-yl) carbonate] are 2.14 µM and 11 min.
The like results for `CC(C)C(=O)O[C@H]1[C@@H](OC(=O)C(C)C)[C@](C#N)(c2ccc3c(N)ncnn23)O[C@@H]1COC(=O)OC(C)(C)C` [Compound 58, (2R,3R,4R,5R)-2-(4-aminopyrrolo[2,1-f][1,2,4]triazin-7-yl)-5-(((tert-butoxycarbonyl)oxy)methyl)-2-cyanotetrahydrofuran-3,4-diyl bis(2-methylpropanoate)] were, in that order, 1.36 µM and 1.19 min.
Turning to `CC(C)OC(=O)OC[C@H]1O[C@@](C#N)(c2ccc3c(N)ncnn23)[C@H](OC(=O)C(C)C)[C@@H]1OC(=O)C(C)C` [Compound 59, (2R,3R,4R,5R)-2-(4-aminopyrrolo[2,1-f][1,2,4]triazin-7-yl)-2-cyano-5-(((isopropoxycarbonyl)oxy)methyl)tetrahydrofuran-3,4-diyl bis(2-methylpropanoate)], the concentration giving a half-maximal response (EC50) in data set [1] (setting [3]) was 0.786 µM. The half-life at 2 µM in “GI S9 stability” turned out to be 1.44 min; in data set [2], 0.869 min.
For `CC(=O)O[C@H]1[C@@H](OC(C)=O)[C@](C#N)(c2ccc3c(N)ncnn23)O[C@@H]1COC(=O)OC(C)C` [Compound 65, (2R,3R,4R,5R)-2-(4-aminopyrrolo[2,1-f][1,2,4]triazin-7-yl)-2-cyano-5-(((isopropoxycarbonyl)oxy)methyl)tetrahydrofuran-3,4-diyl diacetate], the EC50 in data set [1] (setting [3]) stood at 1.08 µM. Also, the half-life at 2 µM in data set [2] worked out at 0.621 min.
In the case of `COC(=O)OC[C@H]1O[C@@](C#N)(c2ccc3c(N)ncnn23)[C@H](OC(C)=O)[C@@H]1OC(C)=O` [Compound 128, (2R,3R,4R,5R)-2-(4-aminopyrrolo[2,1-f][1,2,4]triazin-7-yl)-2-cyano-5-(((methoxycarbonyl)oxy)methyl)tetrahydrofuran-3,4-diyl diacetate], the half-life at 2 µM in data set [2] turned out to be 0.59 min.
As for `CCOC(=O)OC[C@H]1O[C@@](C#N)(c2ccc3c(N)ncnn23)[C@H](OC(C)=O)[C@@H]1OC(C)=O` [Compound 129, (2R,3R,4R,5R)-2-(4-aminopyrrolo[2,1-f][1,2,4]triazin-7-yl)-2-cyano-5-(((ethoxycarbonyl)oxy)methyl)tetrahydrofuran-3,4-diyl diacetate], in data set [2], the half-life at 2 µM was 0.623 min.
Take `CC(C)OC(=O)Nc1ncnn2c([C@]3(C#N)O[C@H](COC(=O)OC(C)C)[C@@H](O)[C@H]3O)ccc12` [Compound 137, isopropyl (7-((2R,3R,4S,5R)-2-cyano-3,4-dihydroxy-5-(((isopropoxycarbonyl)oxy)methyl)tetrahydrofuran-2-yl)pyrrolo[2, i-f][1,2,4]triazin-4-yl)carbamate]: the EC50 in data set [1] (HEp-2, read-out: EC50 RSVFluc-Hep2 384 V2) is above 50 µM. Further, in data set [2], the half-life at 2 µM turned out to be 8.05 min. Further, the pH-dependent lipophilicity (logD) (in general, lipophilicity at a set pH, counting ionised and neutral species) in the data set “physchem” is 2.
